Laboratory results taken from ChEMBL document CHEMBL1155836, “Discovery of imidazole carboxamides as potent and selective CCK1R agonists” (Bioorg Med Chem Lett, 2008).

Test system: not listed separately
Assay: Oral bioavailability in mouse at 10 mg/kg
Assay type: ADME, organism-based
Conditions: in vivo

bioavailability [%] | Compound
7 | CCOc1cccc(-n2cc(C(=O)N3CCN(c4cc(C(=O)O)c5ccccc5c4)CC3)nc2-c2ccc(C)cc2)c1
33 | CCOc1cccc(-n2cc(C(=O)N3CCN(c4cc(C(=O)O)c5ccccc5c4)CC3)nc2-c2ccc(F)cc2)c1
43 | CCOc1cccc(-n2cc(C(=O)N3CCN(c4cc(C(=O)[O-])c5ccccc5c4)CC3)nc2-c2ccc(C)cc2)c1.[Na+]
22 | CCOc1cccc(-n2cc(C(=O)N3CCN(c4cc(C(=O)O)c5ccccc5c4)CC3)nc2-c2ccc(C)cc2F)c1

Test system: Mus musculus
Assay: Reduction in overnight food intake in lean mouse at 0.3 mg/kg, po
Assay type: functional
Parameters: scale not given: the % may be the effect or the level left
Conditions: not given

Compound | Activity [%]
CCOc1cccc(-n2cc(C(=O)N3CCN(c4cc(C(=O)[O-])c5ccccc5c4)CC3)nc2-c2ccc(C)cc2)c1.[Na+] | 29

Molecular target: T1, Cholecystokinin receptor type A (Homo sapiens, UniProt P32238)
T1 sequence (P32238 whole entry): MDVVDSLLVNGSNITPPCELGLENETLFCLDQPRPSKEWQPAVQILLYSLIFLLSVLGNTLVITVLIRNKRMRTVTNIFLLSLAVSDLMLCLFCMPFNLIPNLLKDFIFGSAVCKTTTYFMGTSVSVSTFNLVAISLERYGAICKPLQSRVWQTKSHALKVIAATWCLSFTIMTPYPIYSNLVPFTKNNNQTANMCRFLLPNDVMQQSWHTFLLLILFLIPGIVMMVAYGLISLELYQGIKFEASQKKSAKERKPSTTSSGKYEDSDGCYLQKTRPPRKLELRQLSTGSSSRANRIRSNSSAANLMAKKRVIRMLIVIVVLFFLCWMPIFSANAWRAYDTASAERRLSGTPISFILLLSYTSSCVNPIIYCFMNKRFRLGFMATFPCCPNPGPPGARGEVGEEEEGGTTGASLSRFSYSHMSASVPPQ
Assay: Agonist activity against human CCK1 receptor
Assay type: functional
Conditions: not given

EC50 [nM] | Compound
0.094 | CCOc1cccc(-n2cc(C(=O)N3CCN(c4cc(C(=O)O)c5ccccc5c4)CC3)nc2-c2ccc(C)cc2)c1
0.048 | CCOc1cccc(-n2cc(C(=O)N3CCN(c4cc(C(=O)O)c5ccccc5c4)CC3)nc2-c2ccc(F)cc2)c1
0.056 | CCOc1cccc(-n2cc(C(=O)N3CCN(c4cc(C(=O)O)c5ccccc5c4)CC3)nc2-c2ccc(C)cc2F)c1

Molecular target: Cholecystokinin receptor type A (Mus musculus, UniProt O08786)
Sequence (O08786 whole entry, looked up): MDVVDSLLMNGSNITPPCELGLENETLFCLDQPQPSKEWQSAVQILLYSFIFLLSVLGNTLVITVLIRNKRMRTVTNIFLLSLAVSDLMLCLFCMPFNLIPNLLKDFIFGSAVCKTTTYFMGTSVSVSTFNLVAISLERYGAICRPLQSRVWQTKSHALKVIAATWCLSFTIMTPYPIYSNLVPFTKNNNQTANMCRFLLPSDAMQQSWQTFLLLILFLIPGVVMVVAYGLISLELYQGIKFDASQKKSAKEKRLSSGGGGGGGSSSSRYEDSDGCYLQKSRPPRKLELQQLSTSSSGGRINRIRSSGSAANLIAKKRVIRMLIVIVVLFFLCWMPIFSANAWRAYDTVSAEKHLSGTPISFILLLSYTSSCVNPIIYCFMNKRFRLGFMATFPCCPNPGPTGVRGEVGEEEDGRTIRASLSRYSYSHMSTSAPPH
Assay: Agonist activity against mouse CCK1 receptor
Assay type: functional
Conditions: not given

EC50 [nM] | Compound
0.78 | CCOc1cccc(-n2cc(C(=O)N3CCN(c4cc(C(=O)[O-])c5ccccc5c4)CC3)nc2-c2ccc(C)cc2)c1.[Na+]

Test system: not listed separately
Assay: Volume of distribution in mouse at 1.0 mg/kg, iv and 10 mg/kg, po
Assay type: ADME, organism-based
Conditions: in vivo

Vd [L/kg] | Compound
0.47 | CCOc1cccc(-n2cc(C(=O)N3CCN(c4cc(C(=O)O)c5ccccc5c4)CC3)nc2-c2ccc(C)cc2)c1
0.73 | CCOc1cccc(-n2cc(C(=O)N3CCN(c4cc(C(=O)O)c5ccccc5c4)CC3)nc2-c2ccc(F)cc2)c1
0.56 | CCOc1cccc(-n2cc(C(=O)N3CCN(c4cc(C(=O)[O-])c5ccccc5c4)CC3)nc2-c2ccc(C)cc2)c1.[Na+]
0.59 | CCOc1cccc(-n2cc(C(=O)N3CCN(c4cc(C(=O)O)c5ccccc5c4)CC3)nc2-c2ccc(C)cc2F)c1

Test system: Mus musculus
Assay: Reduction in overnight food intake in lean mouse at 3 mg/kg, po
Assay type: functional
Parameters: scale not given: the % may be the effect or the level left
Conditions: not given

Compound | Activity [%]
CCOc1cccc(-n2cc(C(=O)N3CCN(c4cc(C(=O)[O-])c5ccccc5c4)CC3)nc2-c2ccc(C)cc2)c1.[Na+] | 78

Test system: not listed separately
Assay: (§1) Cmax in mouse at 1.0 mg/kg, iv and 10 mg/kg, po
Assay type: ADME, organism-based
Conditions: in vivo

Cmax [nM] | Compound
280 | CCOc1cccc(-n2cc(C(=O)N3CCN(c4cc(C(=O)O)c5ccccc5c4)CC3)nc2-c2ccc(C)cc2)c1
1100 | CCOc1cccc(-n2cc(C(=O)N3CCN(c4cc(C(=O)O)c5ccccc5c4)CC3)nc2-c2ccc(F)cc2)c1
820 | CCOc1cccc(-n2cc(C(=O)N3CCN(c4cc(C(=O)O)c5ccccc5c4)CC3)nc2-c2ccc(C)cc2F)c1

Test system: Mus musculus
Assay: as §1
Assay type: ADME, organism-based
Conditions: in vivo

Cmax [µM] | Compound
4.9 | CCOc1cccc(-n2cc(C(=O)N3CCN(c4cc(C(=O)[O-])c5ccccc5c4)CC3)nc2-c2ccc(C)cc2)c1.[Na+]

Molecular target: T2, Gastrin/cholecystokinin type B receptor (Homo sapiens, UniProt P32239)
T2 sequence (P32239 whole entry): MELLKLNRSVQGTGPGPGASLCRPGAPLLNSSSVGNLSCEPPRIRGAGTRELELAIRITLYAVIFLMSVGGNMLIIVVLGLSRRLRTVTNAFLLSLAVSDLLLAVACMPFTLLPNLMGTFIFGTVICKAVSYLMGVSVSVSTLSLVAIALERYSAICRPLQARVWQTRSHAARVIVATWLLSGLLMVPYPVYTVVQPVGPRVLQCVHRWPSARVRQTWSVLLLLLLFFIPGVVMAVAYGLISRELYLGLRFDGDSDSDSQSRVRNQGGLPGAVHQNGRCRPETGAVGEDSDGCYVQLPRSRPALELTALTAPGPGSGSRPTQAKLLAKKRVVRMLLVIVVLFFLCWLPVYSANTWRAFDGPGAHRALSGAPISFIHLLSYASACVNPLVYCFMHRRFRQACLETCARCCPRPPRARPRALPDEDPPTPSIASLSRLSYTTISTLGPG
Assay: Inhibition of human CCK2 receptor
Conditions: not given

IC50 [µM] | Compound
> 10 | CCOc1cccc(-n2cc(C(=O)N3CCN(c4cc(C(=O)O)c5ccccc5c4)CC3)nc2-c2ccc(C)cc2)c1
> 10 | CCOc1cccc(-n2cc(C(=O)N3CCN(c4cc(C(=O)O)c5ccccc5c4)CC3)nc2-c2ccc(F)cc2)c1
> 10 | CCOc1cccc(-n2cc(C(=O)N3CCN(c4cc(C(=O)O)c5ccccc5c4)CC3)nc2-c2ccc(C)cc2F)c1

Molecular target: T1, Cholecystokinin receptor type A
Assay: Inhibition of human CCK1 receptor
Conditions: not given

IC50 [nM] | Compound
0.12 | CCOc1cccc(-n2cc(C(=O)N3CCN(c4cc(C(=O)O)c5ccccc5c4)CC3)nc2-c2ccc(C)cc2)c1
0.08 | CCOc1cccc(-n2cc(C(=O)N3CCN(c4cc(C(=O)O)c5ccccc5c4)CC3)nc2-c2ccc(F)cc2)c1
0.06 | CCOc1cccc(-n2cc(C(=O)N3CCN(c4cc(C(=O)O)c5ccccc5c4)CC3)nc2-c2ccc(C)cc2F)c1

Test system: not listed separately
Assay: Clearance in mouse at 1.0 mg/kg, iv and 10 mg/kg, po
Assay type: ADME, organism-based
Conditions: in vivo

clearance [mL/min/kg] | Compound
5.3 | CCOc1cccc(-n2cc(C(=O)N3CCN(c4cc(C(=O)O)c5ccccc5c4)CC3)nc2-c2ccc(C)cc2)c1
6.4 | CCOc1cccc(-n2cc(C(=O)N3CCN(c4cc(C(=O)O)c5ccccc5c4)CC3)nc2-c2ccc(F)cc2)c1
3.1 | CCOc1cccc(-n2cc(C(=O)N3CCN(c4cc(C(=O)[O-])c5ccccc5c4)CC3)nc2-c2ccc(C)cc2)c1.[Na+]
10.4 | CCOc1cccc(-n2cc(C(=O)N3CCN(c4cc(C(=O)O)c5ccccc5c4)CC3)nc2-c2ccc(C)cc2F)c1

Test system: not listed separately
Assay: Half life in mouse at 1.0 mg/kg, iv and 10 mg/kg, po
Assay type: ADME, organism-based
Conditions: in vivo

half-life [min] | Compound
210 | CCOc1cccc(-n2cc(C(=O)N3CCN(c4cc(C(=O)O)c5ccccc5c4)CC3)nc2-c2ccc(C)cc2)c1
162 | CCOc1cccc(-n2cc(C(=O)N3CCN(c4cc(C(=O)O)c5ccccc5c4)CC3)nc2-c2ccc(F)cc2)c1
204 | CCOc1cccc(-n2cc(C(=O)N3CCN(c4cc(C(=O)[O-])c5ccccc5c4)CC3)nc2-c2ccc(C)cc2)c1.[Na+]
102 | CCOc1cccc(-n2cc(C(=O)N3CCN(c4cc(C(=O)O)c5ccccc5c4)CC3)nc2-c2ccc(C)cc2F)c1
